The values below come from patent US20170348288A1, “DOSING REGIMENS FOR BETA-3 ADRENOCEPTOR AGONISTS AND ANTI-MUSCARINIC AGENTS FOR THE TREATMENT AND PREVENTION OF LOWER URINARY TRACT SYMPTOMS AND OVERACTIVE BLADDER” (VELICEPT THERAPEUTICS, INC., priority 2016, published 2017).

In assay [1] the target is T1, beta-3 adrenoceptor (Rattus norvegicus, UniProt P26255).
T1 construct: The bladder longitudinal smooth muscle, with the urothelium still attached were mounted in 25 ml organ baths; from tissue; host or cells: rat urinary bladder (longitudinal smooth muscle with urothelium), male CD rats
Description: Pilot cumulative concentration response curves to determine EC90 for inhibition of EFS-induced contraction in rat isolated bladder. As to conditions: rat isolated bladder strips, EFS 15 Hz, CCRC half-log increments; calculated values; read-out: EC90 concentration to inhibit EFS-induced contraction in rat isolated bladder. As for the experimental part: Macroscopically normal bladders from Male CD rats (220-250 g) were used. […] Each bladder was cleaned free of surrounding connective tissue and halved longitudinally. The bladder longitudinal smooth muscle, with the urothelium still attached were mounted in 25 ml organ baths containing physiological saline solution (PSS) (composition: 119.0 mM NaCl, 4.7 mM KCl, 1.2 mM MgSO4, 24.9 mM NaHCO3, 1.2 mM KH2PO4, 2.5 mM CaCl2 and 11.1 mM glucose) supplemented with 1 μM prazosin (α1-adrenoceptor antagonist) and 30 nM ICI118551 (β2-adrenoceptor antagonist), aerated with 95% O2/5% CO2 gas mix, warmed and maintained at approximately 37° C. throughout the experiment. Changes in force production were recorded using transducers. […]
EFS parameters and viability check: In initial experiments the parameters for the EFS were assessed by performing a frequency curve to determine a frequency that would give a response that was approximately 80% of the response seen to 80 mM KCl. Optimal EFS parameters were determined to be: 30 Volts, square pulse of 0.1 ms, train of 4 seconds every 120 seconds, 15 Hz. […]
Pilot studies to determine EC90 concentrations of the test compounds were performed. […] From the data obtained in these experiments, EC90 concentrations of the test compounds were determined for use in subsequent experiments. […]

For assay [2], the target named is T1, beta-3 adrenoceptor. Description: Desensitization and washout: CCRC on EFS-induced contraction of rat bladder strips after pre-incubation with the EC90 concentration and washing with PSS. The procedure: Macroscopically normal bladders from Male CD rats (220-250 g) were used. […] Each bladder was cleaned free of surrounding connective tissue and halved longitudinally. The bladder longitudinal smooth muscle, with the urothelium still attached were mounted in 25 ml organ baths containing physiological saline solution (PSS) (composition: 119.0 mM NaCl, 4.7 mM KCl, 1.2 mM MgSO4, 24.9 mM NaHCO3, 1.2 mM KH2PO4, 2.5 mM CaCl2 and 11.1 mM glucose) supplemented with 1 μM prazosin (α1-adrenoceptor antagonist) and 30 nM ICI118551 (β2-adrenoceptor antagonist), aerated with 95% O2/5% CO2 gas mix, warmed and maintained at approximately 37° C. throughout the experiment. Changes in force production were recorded using transducers. After mounting, the bladder halves were allowed to equilibrate for at least 30 min before they were set to a stable tension of approximately 1.0 g. The tissue was then allowed to equilibrate over at least a 60 min period with washes every 15 min.
EFS parameters and viability check: In initial experiments the parameters for the EFS were assessed by performing a frequency curve to determine a frequency that would give a response that was approximately 80% of the response seen to 80 mM KCl. Optimal EFS parameters were determined to be: 30 Volts, square pulse of 0.1 ms, train of 4 seconds every 120 seconds, 15 Hz. This frequency was then used to stimulate the tissue for all subsequent experiments. The viability of bladder strips was tested by stimulating the tissue with EFS for minimum of ten min.
The bladder muscle strips were incubated with the EC90 determined for each test compound in the pilot studies, for a period of 1 or 3 hr. Following compound incubation, the tissues were washed with PSS for a period of 1, 3 or 6 hr, with washes approximately every 15 min, to remove the drug. At the end of the final wash period the tissues were stimulated with EFS, and left to equilibrate for at least 30 min. -A CCRC was then performed in each tissue.

The target of assay [3] is T2, murine adipocyte beta-3 adrenoceptor (Mus musculus, UniProt P25962).
T2 construct: host or cells: murine adipocytes (no further detail)
To be noted: literature report, cited from earlier work.

Where [4] appears, read: three hr incubation with EC90, one hr of washing.
The mark [5] stands for this setting: three hr incubation, low and mid-concentration range.

The structures appear in SMILES notation.

T1 sequence (P26255 whole entry): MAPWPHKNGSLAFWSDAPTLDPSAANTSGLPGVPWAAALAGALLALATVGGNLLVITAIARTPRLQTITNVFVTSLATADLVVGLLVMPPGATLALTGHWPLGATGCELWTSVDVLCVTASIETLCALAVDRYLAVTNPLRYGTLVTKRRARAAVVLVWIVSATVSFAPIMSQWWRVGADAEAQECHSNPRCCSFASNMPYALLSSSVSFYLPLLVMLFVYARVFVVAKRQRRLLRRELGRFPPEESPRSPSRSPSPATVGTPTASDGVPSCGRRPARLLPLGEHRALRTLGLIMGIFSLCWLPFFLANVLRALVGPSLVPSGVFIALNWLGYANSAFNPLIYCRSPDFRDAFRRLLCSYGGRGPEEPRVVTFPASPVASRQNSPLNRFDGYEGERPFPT
T2 sequence (P25962 whole entry): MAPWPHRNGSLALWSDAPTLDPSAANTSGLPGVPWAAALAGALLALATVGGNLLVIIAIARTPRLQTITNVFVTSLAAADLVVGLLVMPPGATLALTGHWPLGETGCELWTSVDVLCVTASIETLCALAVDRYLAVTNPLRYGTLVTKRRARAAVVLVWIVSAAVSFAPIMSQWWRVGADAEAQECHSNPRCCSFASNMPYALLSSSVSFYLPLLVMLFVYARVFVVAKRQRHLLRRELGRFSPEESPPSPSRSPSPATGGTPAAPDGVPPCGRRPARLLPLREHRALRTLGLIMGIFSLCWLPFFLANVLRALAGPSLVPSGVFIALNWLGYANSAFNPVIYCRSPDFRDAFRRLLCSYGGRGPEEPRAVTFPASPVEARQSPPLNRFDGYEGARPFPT

For the compound `C[C@H](Cc1ccc2c(c1)OC(C(=O)[O-])(C(=O)[O-])O2)NC[C@H](O)c1cccc(Cl)c1.[Na+].[Na+]` [CL-316,243], the EC90 at beta-3 adrenoceptor [1] was 0.042 µM. Further, at beta-3 adrenoceptor [2] (setting [4]), the “Responses to the agonist (CCRC, reduction of EFS-induced contraction) vs vehicle-incubated tissue” value is “significantly attenuated”. Also, the “Potentiation of EFS-induced contraction from baseline” value on beta-3 adrenoceptor [2] (setting [5]) is given as “not observed”. The “Functional response following prolonged exposure to the beta-3 agonist” value in assay [3] (murine adipocytes) is “attenuated”. Further, the “Effect on murine adipocyte beta-3 adrenoceptor” value in assay [3] is given as “down-regulation”.
For `Nc1nc(CC(=O)Nc2ccc(CCNC[C@H](O)c3ccccc3)cc2)cs1` [mirabegron, (R)-2-(2-aminothiazol-4-yl)-N-(4-(2-((2-hydroxy-2-phenylethyl)amino)ethyl)phenyl)acetamide], the EC90 at beta-3 adrenoceptor [1] is 15.3 µM. For the same compound, the “Concentration range in which the EFS-mediated response was potentiated” value on beta-3 adrenoceptor [2] (following 1 or 3 hr of washout) fell in the range of 10 to 1000 nM. In addition, the “Responses to the agonist (CCRC, reduction of EFS-induced contraction) vs vehicle-incubated tissue” value is listed as “significantly attenuated” on beta-3 adrenoceptor [2] (one hr incubation with EC90, one hr of washing with PSS); “significantly attenuated” at beta-3 adrenoceptor [2] (one hr incubation with EC90, three hr of washing, higher concentrations); “significantly attenuated” on beta-3 adrenoceptor [2] (setting [4]); “significantly attenuated” at beta-3 adrenoceptor [2] (three hr incubation with EC90, three hr of washing, highest concentrations). In addition, the “Potentiation of EFS-induced contraction from baseline” value is “marked potentiation of EFS-induced contraction” at beta-3 adrenoceptor [2] (one hr incubation, lower and mid-concentration range); “marked potentiation of EFS-induced contraction” at beta-3 adrenoceptor [2] (setting [5]).
